# In patent publication US6461619B1 (Somerset Pharmaceuticals, Inc., priority 1998, dated 2002):
# Where a name gives a salt, the structure may show the parent alone.
# Assays:
# [1] = system: second-degree burn wounds; experiment: second-degree burn wound model, epidermal migration (epithelization) assessment; type: in vivo, Swine; conditions: for Percent of wounds completely epithelized / number of wounds healed (completely epithelized) over the number of wounds assessed: pig
# Description: The ability of selegiline and desmethylselegiline to assist in the healing of burns was tested using a second-degree burn wound model. In second-degree burns, the entire surface of the epidermis is destroyed. An epidermal covering is regenerated from the remaining epithelial and epidermal cells adjacent to the burns. This phase of the healing process is called epithelization.
# Swine were used for the experimental research animal because their skin has many morphological similarities to human skin. Seven young female specific pathogen free (SPF:Ken-O-Kaw Farms, Windsor, Ill.) pigs weighing 25-30 kg were kept in house for two weeks prior to initiating the experiment. These animals were fed a basal diet ad libitum and housed individually in facilities with controlled temperature (19-21° C.) and lights (12 h/12 h LD).
# Experimental animals were clipped with standard animal clippers on the day of the experiment. The skin on the back and both sides of the animal was prepared for wounding by washing with a non-antibiotic soap and sterile water. Each animal was anesthetized i.m. with ketamine-HCl (20 mg/kg), xylazine (2 mg/kg) and atropine (0.05 mg/kg), followed by mask inhalation of an isoflurane and oxygen combination. Five specifically designed cylindrical brass rods weighing 358 g each were heated in a boiling water bath to 100° C. A rod was removed from the water bath and wiped dry before being applied to the skin surface to prevent water droplets from creating a steam burn on the skin. The brass rod was held at a vertical position on the skin for six seconds with all pressure being supplied by gravity in order to make a burn 8.5 mm diameter×0.8 mm deep. Immediately after burning, the roof of the burn blister was removed with a sterile spatula. The burn wounds were made approximately 2 cm from each other.
# Approximately 90 burn wounds were made on the anterior two-thirds of the animal. The posterior third of the animal cannot be used because of anatomical differences in burn wound healing (a more rapid healing of burns has been observed at that position).
# A total of seven animals were used and a total of fifteen wounds per treatment group were analyzed on each of days 7-12 after wounding. Treatments were coded to maintain blind study compliance. The burn wounds were treated with 25 ug of test article (enough to cover each wound). Treatments were allowed to penetrate into the sites for at least a 20 minute time period. Each treatment was applied within 20 minutes of blister removal and treatment occurred once a day for the first five days.
# Beginning on day seven after wounding (day 0) and each day thereafter for four to six days, five burn wounds and the surrounding normal skin from each treatment area were excised using an electrokeratome. Any specimens that were not excised intact were discarded. The excised wounds and the surrounding normal skin were incubated in 0.5 M NaBr for 24 hours at 37° C. After incubation, the specimens were separated into epidermal and dermal sheets. The epidermis was examined macroscopically for defects in the area of the burn wounds. Epithelization was considered complete if no defect was present (healed). […] The epidermal sheet was placed on cardboard for a permanent record.
# The number of wounds healed (completely epithelized) were divided by the total number of wounds sampled per day and multiplied by 100.
# [2] = system: superoxide dysmutase, catalase and glutathione peroxidase; conditions: background statement (Jenner, et al.); cited from earlier work
# [3] = 10^-4M topical, day 7 after burning
# [4] = 10^-4M topical, day 8 after burning
# [5] = 10^-4M topical, day 9 after burning
# [6] = 10^-4M topical, day 10 after burning
# [7] = 10^-4M topical, day 11 after burning
# [8] = 10^-4M topical, day 12 after burning
# [9] = 10^-4M topical, day 13 after burning
# [10] = 10^-6M topical, day 7 after burning
# [11] = 10^-6M topical, day 8 after burning
# [12] = 10^-6M topical, day 9 after burning
# [13] = 10^-6M topical, day 10 after burning
# [14] = 10^-6M topical, day 11 after burning
# [15] = 10^-6M topical, day 12 after burning
# [16] = 10^-6M topical, day 13 after burning
# [17] = 10^-8M topical, day 7 after burning
# [18] = 10^-8M topical, day 8 after burning
# [19] = 10^-8M topical, day 9 after burning
# [20] = 10^-8M topical, day 10 after burning
# [21] = 10^-8M topical, day 11 after burning
# [22] = 10^-8M topical, day 12 after burning
# [23] = 10^-8M topical, day 13 after burning
structure (smiles),measurement,setting,value
"C#CCN(C)[C@H](C)Cc1ccccc1 [selegiline HCl, selegiline]",initiation of epithelization compared with other treatment groups,[1]; 10^-4 M and 10^-6 M,earlier time point than all other treatment groups
same,Percent of wounds completely epithelized,[1]; [3],(0%)
same,number of wounds healed (completely epithelized) over the number of wounds assessed,[1]; [3], 0/15
same,Percent of wounds completely epithelized,[1]; [4],(0%)
same,number of wounds healed (completely epithelized) over the number of wounds assessed,[1]; [4], 0/15
same,Percent of wounds completely epithelized,[1]; [5],(0%)
same,number of wounds healed (completely epithelized) over the number of wounds assessed,[1]; [5], 0/15
same,Percent of wounds completely epithelized,[1]; [6],20%
same,number of wounds healed (completely epithelized) over the number of wounds assessed,[1]; [6], 3/15
same,Percent of wounds completely epithelized,"[1]; 10^-4M topical, day 10 after burning, listed as A-1",(20%)
same,Percent of wounds completely epithelized,[1]; [7],33%
same,number of wounds healed (completely epithelized) over the number of wounds assessed,[1]; [7], 5/15
same,Percent of wounds completely epithelized,"[1]; 10^-4M topical, day 11 after burning, listed as A-1",(33%)
same,Percent of wounds completely epithelized,[1]; [8],33%
same,number of wounds healed (completely epithelized) over the number of wounds assessed,[1]; [8], 6/15
same,Percent of wounds completely epithelized,"[1]; 10^-4M topical, day 12 after burning, listed as A-1",(40%)
same,Percent of wounds completely epithelized,[1]; [9],33%
same,number of wounds healed (completely epithelized) over the number of wounds assessed,[1]; [9], 6/15
same,Percent of wounds completely epithelized,"[1]; 10^-4M topical, day 13 after burning, listed as A-1",(40%)
same,Percent of wounds completely epithelized,[1]; [10],(0%)
same,number of wounds healed (completely epithelized) over the number of wounds assessed,[1]; [10], 0/15
same,Percent of wounds completely epithelized,[1]; [11],(0%)
same,number of wounds healed (completely epithelized) over the number of wounds assessed,[1]; [11], 0/15
same,Percent of wounds completely epithelized,[1]; [12],(0%)
same,number of wounds healed (completely epithelized) over the number of wounds assessed,[1]; [12], 0/15
same,Percent of wounds completely epithelized,[1]; [13],20%
same,number of wounds healed (completely epithelized) over the number of wounds assessed,[1]; [13], 3/15
same,Percent of wounds completely epithelized,"[1]; 10^-6M topical, day 10 after burning, listed as A-2",(20%)
same,Percent of wounds completely epithelized,[1]; [14],33%
same,number of wounds healed (completely epithelized) over the number of wounds assessed,[1]; [14], 5/15
same,Percent of wounds completely epithelized,"[1]; 10^-6M topical, day 11 after burning, listed as A-2",(33%)
same,Percent of wounds completely epithelized,[1]; [15],40%
same,number of wounds healed (completely epithelized) over the number of wounds assessed,[1]; [15], 6/15
same,Percent of wounds completely epithelized,"[1]; 10^-6M topical, day 12 after burning, listed as A-2",(40%)
same,Percent of wounds completely epithelized,[1]; [16],40%
same,number of wounds healed (completely epithelized) over the number of wounds assessed,[1]; [16], 6/15
same,Percent of wounds completely epithelized,"[1]; 10^-6M topical, day 13 after burning, listed as A-2",(40%)
same,Percent of wounds completely epithelized,[1]; [17],(0%)
same,number of wounds healed (completely epithelized) over the number of wounds assessed,[1]; [17], 0/15
same,Percent of wounds completely epithelized,[1]; [18],(0%)
same,number of wounds healed (completely epithelized) over the number of wounds assessed,[1]; [18], 0/15
same,Percent of wounds completely epithelized,[1]; [19],(0%)
same,number of wounds healed (completely epithelized) over the number of wounds assessed,[1]; [19], 0/15
same,Percent of wounds completely epithelized,[1]; [20],(0%)
same,number of wounds healed (completely epithelized) over the number of wounds assessed,[1]; [20], 0/15
same,Percent of wounds completely epithelized,[1]; [21],None
same,number of wounds healed (completely epithelized) over the number of wounds assessed,[1]; [21], 0/15
same,Percent of wounds completely epithelized,"[1]; 10^-8M topical, day 11 after burning, listed as A-3",(0%)
same,Percent of wounds completely epithelized,[1]; [22],7%
same,number of wounds healed (completely epithelized) over the number of wounds assessed,[1]; [22], 1/15
same,Percent of wounds completely epithelized,"[1]; 10^-8M topical, day 12 after burning, listed as A-3",(7%)
same,Percent of wounds completely epithelized,[1]; [23],Thirty-eight
same,number of wounds healed (completely epithelized) over the number of wounds assessed,[1]; [23], 6/16
same,Percent of wounds completely epithelized,"[1]; 10^-8M topical, day 13 after burning, listed as A-3",(38%)
same,wound crust colour during absorption of applied agent,"[1]; first three days of treatment, normal again after 15 minutes",more pronounced
same,"activity of the endogenous anti-oxidants superoxide dysmutase, catalase and glutathione peroxidase",[2],increase the activity
